Reference: the NIST ThermoML archive (doi:10.1016/j.tca.2017.12.024)
Numbers after ± are expanded uncertainties.

Legend:
[1] = Crystal; DTA
[2] = Molar enthalpy of transition or fusion; conditions: Crystal; DSC

Row | Normal melting temperature [1] | Molar enthalpy of transition or fusion [2] | Compound
1 | 43.60 ± 3 °C | 8.43 ± 1.67 kcal/mol | CCCCCCCCCCCC(=O)O [dodecanoic acid]
2 | 32.00 ± 3 °C | 5.97 ± 1.2 kcal/mol | CCCCCCCCCC(=O)O [decanoic acid]
3 | 54.70 ± 3 °C | 10.2 ± 2.01 kcal/mol | CCCCCCCCCCCCCC(=O)O [tetradecanoic acid]
4 | 61.70 ± 3 °C | 12.6 ± 2.63 kcal/mol | CCCCCCCCCCCCCCCC(=O)O [hexadecanoic acid]
5 | 68.40 ± 3 °C | 14.3 ± 2.87 kcal/mol | CCCCCCCCCCCCCCCCCC(=O)O [octadecanoic acid]
